From US4491594A, “Method for treatment of seizures” (Eisai Co., Ltd., priority 1983, dated 1985) come the findings set out here.

The nature of series [1]: Acute toxicity, mouse. The following applies: in vivo, read-out: acute dosages. From the text:
(§1) The results of toxicity tests on coenzyme Q10 used in this invention are shown below.

The subject of series [2] is penicillin cortical focus. The series can be described thus: Prevention of EEG spike discharge in penicillin cortical focus model (Co Q10 given before penicillin G). It is filed as in vivo, Male Sprague-Dawley rats. The note with it: Table 1, Experimental Example 4; 100 mg/kg Co Q10 first, PCG applied 64 minutes thereafter. From the text: (§2) Male Sprague-Dawley rats each having a body weight in the range of 250 to 350 g were used for the experiment.
(§3) Each test rat, anesthetized with ether and immobilized with succinylcholine was subjected to tracheal intubation and fixed to a stereotaxic instrument under artificial respiration. A hole about 3 mm in diameter was made at a part of the skull corresponding to the left-side sensory-motor cortex and the dura mater was cut out to expose the cerebral cortex surface. The skull was immersed in a physiological saline solution. A 2 mm square filter paper impregnated with […] of penicillin (penicillin G) was then applied directly to the cerebral surface to form a penicillin cortical focus. This focus is a typical epilepsy model.
Each rat skull was bared and screw electrodes, four in all, were fixedly planted at the following four locations: two sites 2 mm to the left and right, respectively, from a position 2 mm forward of the bregma, and two sites 3 mm to the left and right, respectively, from a position 6 mm rearward of the bregma. Unipolar and bipolar electroencephalograms (EEG) were recorded by the electrodes. Electrocardiogram readings were simultaneously taken. […]

For series [3], the system named is Wistar rats. The series can be described thus: Chronic toxicity, 26 weeks per os. It counts as in vivo, male and female Wistar rats. The following applies: 6, 60 and 600 mg/kg/day per os, 26 successive weeks. As for the experimental part:
Coenzyme Q10 was forcibly administered per os to both male and female Wistar rats at doses of 6, 60 and 600 mg/kg/day for a period of 26 successive weeks. After this testing period, an examination of the general condition, a blood test, a urine test and a morphological observation (macroscopic and histologic) were conducted.

Series [4] concerns penicillin cortical focus. The series can be described thus: EEG spike discharge in penicillin cortical focus epilepsy model (Co Q10 given after penicillin G). It is filed as in vivo, Male Sprague-Dawley rats.
Source text: as §2, §3
Each rat skull was bared and screw electrodes, four in all, were fixedly planted at the following four locations: two sites 2 mm to the left and right, respectively, from a position 2 mm forward of the bregma, and two sites 3 mm to the left and right, respectively, from a position 6 mm rearward of the bregma. Unipolar and bipolar electroencephalograms (EEG) were recorded by the electrodes. Electrocardiogram readings were simultaneously taken. EEG lead measurements were conducted of (1) four bipolar leads comprising a lead from the left sincipital region to the left occipital region, a lead from the right sincipital region to the right occipital region, a lead from the left to the right sincipital region, and a lead from the left to the right occipital region, and (2) four unipolar leads comprising leads from each of the left sincipital region, left occipital region, right sincipital region and right occipital region.
The corticogram shown in FIG. 6 illustrates the procedure employed. The recordings were carried out from 4 epidural electrodes. LF-LO: bipolar recording from left frontal electrode (LF) to left occipital electrode (LO), RF-RO: bipolar recording from right frontal electrode (RF) to right occipital electrode (RO), LF-RF: bipolar recording from LF to RF, LO-RO: bipolar recording from LO to RO, LF-E: unipolar recording from LF, LO-E: unipolar recording from LO, RF-E: unipolar recording from RF, RO-E: unipolar recording from RO.
83.5 U/μl of penicillin G was absorbed into a 2 mm square filter paper and directly applied to the cerebral cortex surface from an opening formed around the left sensory-motor cortex. coenzyme Q10 (Co Q10) was administered intraperitoneally to each rat, and the EEG patterns were recorded in the same way as above. As a control, a solvent alone was administered intraperitoneally to control rats at the same rate.
Further experiments were conducted by the same procedure as used in Experimental Example 1, except that the time of the administration of coenzyme Q10 was changed. The results are shown in Table 1 below as Experimental Examples 2 to 4. In Table 1, PCG represents penicillin G.

A short description of series [5]: Acute toxicity, rat. The following applies: in vivo, read-out: acute dosages.
Source text: as §1

Series [6] in a line: Solubility. It is filed as physicochemical.
Setting [7] is: Experimental Example 1, intraperitoneal.
The mark [8] stands for this setting: Table 1, Experimental Example 2, 100 mg/kg, 107 minutes after applying PCG.
The mark [9] stands for this setting: Table 1, Experimental Example 3, 100 mg/kg, 65 minutes after applying PCG.

Take `COC1=C(OC)C(=O)C(C/C=C(\C)CC/C=C(\C)CC/C=C(\C)CC/C=C(\C)CC/C=C(\C)CC/C=C(\C)CC/C=C(\C)CC/C=C(\C)CC/C=C(\C)CCC=C(C)C)=C(C)C1=O` [coenzyme Q10]: the LD50 in series [1] (im, intramuscular) turned out to be 500 mg/kg; in series [1] (iv, Intravous) it was 250 mg/kg; in series [1] (oral), 4000 mg/kg; in series [1] (sc, subcutaneous) it was 500 mg/kg; in series [5] (im, intramuscular), 500 mg/kg; in series [5] (iv, Intravous), 250 mg/kg. Also, the LD50 came out at 4000 mg/kg in series [5] (oral) and 500 mg/kg in series [5] (sc, subcutaneous). Moreover, the “time during which no spike discharge occurred” value in series [2] is reported as “more than 80 minutes”. Also, in series [3], the “general condition, blood test, urine test and morphological observation vs control group” value was “No differences at all from the control group were observed”. In addition, the “duration of disappearance of the spike discharge” value in series [4] (setting [7]) was “more than 200 minutes”; in series [4] (setting [8]), “more than 120 minutes”; in series [4] (setting [9]) it was “more than 60 minutes”. Further, in series [4] (setting [7]), the “time to disappearance of the spike discharge after administration of coenzyme Q10” value is reported as “about 10 minutes”. Moreover, the “time to disappearance of the spike discharge after administration of Co Q10” value in series [4] (setting [8]) amounted to 20 min; in series [4] (setting [9]), 19 min. In addition, the solubility result is “soluble” in series [6] (in chloroform, benzene, carbon tetrachloride, acetone and ether); “insoluble” in series [6] (in ethanol, water and methanol).
